Data taken from patent US20190343801A1, “COMPOSITIONS AND METHODS FOR CONTROLLING NATURAL KILLER CELL ACTIVATION AND FUNCTION” (BAR ILAN UNIVERSITY, priority 2017, published 2019).
Counter-ions that a name gives are not always drawn.

Tested on: YTS F-tractin GFP cells
Experiment: NKIS area of YTS F-tractin GFP cells spread over antibody-coated coverslips
Type: cell-based
Settings: 25 μM Y-27 or 1 μM JAS; anti-CD28 or anti-KIR1
Protocol: FIGS. 5E-5H. show analyses of NKIS area and ARF in the activating vs. inhibitory NKIS in the presence of Y-27632 (Y-27) inhibitor of myosin light chain (MLC) phosphorylation and/or JAS. In FIG. 5E is live cell imaging of YTS-2DL1 cells expressing F-tractin GFP treated with 25 μM Y-27 (anti-CD28: n=6 movies; anti-KIR1: n=6 movies). […] In FIG. 5F are YTS F-tractin GFP cells treated with 25 μM Y-27 or left untreated. Cells were seeded over coverslips pre-coated with anti-CD28 or anti-KIR1 and allowed to spread at 37° C. for 10 min before fixation, and 1 μM JAS was added 5 min after initial spreading. NKIS area was determined using ImageJ. […]
Chambered cover glasses (LabTek) were cleaned by treatment with 1 M HCl, 70% ethanol for 30 min and dried at 60° C. for 30 min. […] The NK and target cells in the conjugates were distinguished based on fluorescence signal, in which the target cells expressed mCherry and the NK cells expressed various YFP, CFP or GFP tagged proteins. […] The relative fluorescence intensity of the proteins at the synapse was determined by measuring the ratio between fluorescence intensity at the NKIS relative to a non-NKIS site using ImageJ. […]

C[C@@H](N)C1CCC(C(=O)Nc2ccncc2)CC1 (stereo partly drawn) [Formula Y-27, 4-[(1R)-1-aminoethyl]-N N-4-pyridinyl-trans-cyclohexanecarboxamide, dihydrochloride]
NKIS area / NK contact area: significantly enlarged NKIS area
